{"source": "patent US20050234073A1", "about": "“Methods of inhibiting inflammation” (priority 2003, published 2005)", "type_in_all_cases": "cell-based, mouse", "key": {"[1]": {"system": "splenocytes, CD11c-positive splenic DCs and BMDCs", "experiment": "MHC class II-restricted presentation of ovalbumin to OT-II CD4+ T cells (IL-2 ELISA)", "procedure": "FIG. 17F is a bar chart showing 11-2 production of CD11c^+ splenocytes incubated for 24 hours with BMS212122 or bone marrow derived dendritic cells incubated for 3 days with BMS212122 were washed and co cultured with 100 μg/mL ovalbumin and 100,000 CD4^+ cells from an OT-II transgenic mouse. IL-2 concentrations were measured by ELISA of 24 hour culture supernatants.\nAPCs were incubated with 100 ng/mL α-galcer (kindly provided by Dr. H. Ploegh) for 3 hours, washed three times in PBS and aliquoted into a 96 well plate at 10^6 cells/mL. DN32 cells were added at 1:1 E:T ratio unless otherwise indicated. CD4^+ cells were isolated from spleens of OT-II transgenic mice using positive selection on CD4 magnetic beads (Miltenyi Biotec) and incubated with APCs and 100 μg/mL ovalbumin. The 24.8 NKT cell line was incubated with APCs in the absence of added antigen at E:T=2:1 unless otherwise indicated. Mouse IL-2 production was assessed by ELISA (OptEIA, BD PharMingen) of 24 or 40 hour culture supernatants. APCs were treated with BMS212122 (10 uM dissolved in DMSO; kindly provided by Bristol Myers Squibb, New Jersey) as indicated and washed prior to addition of T or NKT cells. […]"}, "[2]": {"system": "BMDCs", "experiment": "Flow cytometry of surface markers on BMDCs", "procedure": "FIG. 17E is a flow cytometric analysis showing BMDCs cultured for 4 days with BMS212122 were stained with FITC-conjugated mAb 1B1. Dashed line represents the isotype control.\nFIG. 18 is flow cytometric analysis of in vitro differentiated bone marrow cells from wild type mice incubated with BMS212122 (MTPi) or vehicle Surface staining was performed using antibodies to MHC II (FITC-conjugated) and CD11c (PE-conjugated).\nBone marrow was extracted from the femurs of C57BL6 or MTPmx1cre mice, washed once in PBS and resuspended in R10 supplemented with culture supernatant from murine GM-CSF transfected cells for a final concentration of 200 U/mL GM-CSF. BMDCs were then cultured in bacteriological plates for 12-14 days as described. Differentiated cells were harvested by gentle pipetting, washed in PBS, and analyzed by flow cytometry for surface expression of CD11c and I-A^b. Human monocytes were harvested from the peripheral blood of healthy volunteers by positive selection on CD14 magnetic beads (Miltenyi Biotec) and cultured in R10 medium at 10^6 cells per mL supplemented with 200 U/mL recombinant hIL-4 and 300 U/mL recombinant hGM-CSF (PeproTech, Rocky Hill, N.J.). After 5 days cells were dislodged by gentle pipetting, analyzed by flow cytometry and assayed for antigen presentation.\nMouse cells were stained using the following antibodies: FITC-conjugated α-CD1d (1B1, PharMingen); PE-conjugated α-CD11c (HL3, PharMingen); FITC-conjugated α-1-A^d (AMS-32.1, PharMingen); PE-conjugated α-CD69 (H1.2F3, PharMingen); PE-conjugated α-B220 (RA3-6B2, PharMingen). Human cells were stained using: PE-conjugated α-CD83 (550634, PharMingen); FITC-conjugated α-HLA-A,B,C (557348, PharMingen); α-HLA DR,DP,DQ (32381A, PharMingen); α-CD1d (42.1 or 51.1.3); α-mouse IgG+IgM (AMI1708, Biosource, Camarillo, Calif.). Staining was performed in the presence of Via-Probe (PharMingen) and analyzed with a FACSort flow cytometer (Becton Dickinson).\nThe role of MTP in CD1d presentation by primary mouse APCs was examined. Splenocytes were isolated from wild type mice and assayed for their ability to present an exogenous antigen, α-galcer, to DN32 NKT cells and their ability to stimulate the autoreactive NKT cell line 24.8. When splenocytes were incubated with BMS212122 for 24 hours prior to addition of NKT cells, their ability to present exogenous and endogenous CD1d-restricted antigens was reduced (FIG. 17B). […] Dendritic cells were then isolated from wild type splenocytes by positive selection on CD11c magnetic beads. […] Dendritic cells from mouse bone marrow (BMDC) were cultured with BMS212122 or vehicle control after 6 days of differentiation in the presence of GM-CSF. On day 10, BMDCs were collected and cocultured with NKT cells. […]"}, "[3]": {"system": "splenocytes", "experiment": "Splenocyte / CD11c+ dendritic cell CD1d-restricted presentation to DN32 and 24.8 NKT cells (IL-2 ELISA)", "procedure": "FIG. 17B is a series of bar charts showing IL-2 production of splenocytes isolated from wild type mice in the presence or absence of exogenous antigens. Splenocytes were incubated for 24 hours with BMS212122 and washed. Exogenous antigens ovalbumin or α-galcer was added as indicated. Splenocytes were then co cultured with: CD4^+ cells from an OT-II transgenic mouse (left); DN32 NKT cells (center); or autoreactive 24.8 NKT cells (right). IL-2 concentrations were measured by ELISA of 40 hour culture supernatants. *, p<0.05.\nFIG. 17C is a bar chart showing IL-2 production of splenocytes or bone marrow derived dendritic cells co cultured with 24.8 NKT cells and incubated for 24 hours with BMS212122. Anti-CD1d mAb 1B1 or an isotype control was added as indicated. IL-2 concentrations were measured by ELISA of 40 hour culture supernatants. (nd=not detected) *, p<0.02.\nAPCs were incubated with 100 ng/mL α-galcer (kindly provided by Dr. H. Ploegh) for 3 hours, washed three times in PBS and aliquoted into a 96 well plate at 10^6 cells/mL. DN32 cells were added at 1:1 E:T ratio unless otherwise indicated. CD4^+ cells were isolated from spleens of OT-II transgenic mice using positive selection on CD4 magnetic beads (Miltenyi Biotec) and incubated with APCs and 100 μg/mL ovalbumin. […] Mouse IL-2 production was assessed by ELISA (OptEIA, BD PharMingen) of 24 or 40 hour culture supernatants. […]"}}, "data": [{"smiles": "Cc1ccc2c(nc(C)n2CCCCC2(C(=O)NCC(F)(F)F)c3ccccc3-c3ccccc32)c1NC(=O)c1ccccc1-c1ccc(C(F)(F)F)cc1", "note": "[BMS212122, 9-[4-[2,5-Dimethyl-4-[[[4′-(trifluoromethyl)[1,1′-biphenyl]-2-yl]carbonyl]amino]-1H-benzimidazol-1-yl]butyl]-N-(2,2,2-trifluoroethyl)-9H-fluorene-9-carboxamide]", "values": [{"measurement": "presentation of ovalbumin to CD4+ MHC class II-restricted ovalbumin-specific T cells", "setting": "[1]; CD11c-positive splenic DCs and BMDCs, inhibitor-treated", "value": "efficient presentation"}, {"measurement": "splenocyte presentation of ovalbumin to MHC class II-restricted T cell line OT-II", "setting": "[1]; splenocytes, 24 hours inhibitor", "value": "no effect"}, {"measurement": "CD11c surface staining", "setting": "[2]; BMDCs", "value": "unaffected"}, {"measurement": "MHC class II surface staining", "setting": "[2]; BMDCs", "value": "unaffected"}, {"measurement": "CD1d expression on BMDCs, % of vehicle controls", "setting": "[2]; after 4 days of treatment", "value": 66, "unit": "%"}, {"measurement": "CD1d expression on BMDCs, % of level in vehicle treated controls", "setting": "[2]; one day after addition", "value": 86, "unit": "%"}, {"measurement": "effect on presentation of an endogenous ligand to 24.8 NKT cells", "setting": "[3]; CD11c-positive dendritic cell population from splenocytes", "value": "highly pronounced"}, {"measurement": "ability to present exogenous and endogenous CD1d-restricted antigens", "setting": "[3]; splenocytes incubated 24 hours with inhibitor prior to addition of NKT cells", "value": "reduced"}]}]}
